From patent publication US6911432B2, “Drugs, foods or drinks with the use of algae-derived physiologically active substances” (priority 1997, dated 2005)

Assays:
[1] = tested on: RAW264.7; assay: antiproliferation assay, MTT method; assay type: cell-based, mouse; details: for dilution rate of the dilution added to the group whose absorbance at 590 nm was less than one-half of that of the control group: dilution rate 1 corresponds to 5 mM in medium; for IC50: read-out: IC50 (concentration required for 50% proliferation inhibitory rate)
Method: (§1) Each fraction was sterilized by filtration and its 10 μl portion was placed in a well of a 96 well microtiter plate. […] The cell morphology was observed under an optical microscope. […] The absorbance at 590 nm was measured to determine a cell proliferation rate. (2) A 50 mM solution of agarobiose, agarotetraose or agarohexaose obtained in Example 3-(1) was sterilized by filtration and diluted 2-, 4-, 8-, 16-, 32-, 64- and 128-folds with sterilized water. […] [table] The number in Table 3 represents the dilution rate of the dilution added to the group whose absorbance at 590 nm was less than one-half of that of the control group to which water was added. […] Then, for agarobiose, agarotetraose and agarohexaose, the concentrations required for 50% proliferation inhibitory rate (IC50) are calculated based on the change in the absorbance at 590 nm, and are shown in Table 4.

[2] = tested on: HL-60 cells; assay: viable cell count with Trypan Blue under a microscope; assay type: cell-based, human; details: final concentration 250 μM or 125 μM; for number of viable cells as compared with the group to which water was added: 24 hours or 48 hours
Method: Agarobiose, agarotetraose, agarohexaose and agarooctaose (hereinafter, sometimes, these oligosuccharaides are referred to as agarooligosaccharides) obtained in Example 5 were dissolved in water at a concentration of 2.5 mM or 1.25 mM separately, and were sterilized by filtration. HL-60 cells were suspended in RPMI 1640 medium containing 10% fetal bovine serum at a concentration of 2.5×10^5 cells/4.5 ml and to this suspension was added 0.5 ml of each of the oligosaccharide solutions. The resultant mixture were incubated with 5% CO2 at 37° C. for 24 hours or 48 hours. A part of the cell culture was taken up, followed by addition of Trypan Blue thereto and observing under a microscope to count the number of viable cells.
That is, FIG. 14 illustrates the relation between the incubation time and the number of viable cells when HL-60 cells were cultured with addition of one of the oligosaccharides at the final concentration of 250 μM. FIG. 15 illustrates the relation between the incubation time and the number of viable cells when HL-60 cells were cultured with addition of one of the oligosaccharides at the final concentration of 125 μM. In FIGS. 14 and 15, the horizontal axes represent the incubation time (hrs.) and the vertical axes represent the number of viable cells (× 10^5/5 ml). The closed circle (●) represents the addition of water (control), the open diamond (⋄) represents the addition of agarobiose, the open circle (◯) represents the addition of agarotetraose, the open triangle (Δ) represents the addition of agarohexaose and the open square (□) represents the addition of agarooctaose.

[3] = tested on: RPMI1788; assay: antiproliferation assay, MTT method; assay type: cell-based, human; details: for dilution rate of the dilution added to the group whose absorbance at 590 nm was less than one-half of that of the control group: dilution rate 1 corresponds to 5 mM in medium; for IC50: read-out: IC50 (concentration required for 50% proliferation inhibitory rate)
Method: as §1

[4] = tested on: A549; assay: antiproliferation assay, MTT method; assay type: cell-based, human; details: for dilution rate of the dilution added to the group whose absorbance at 590 nm was less than one-half of that of the control group: dilution rate 1 corresponds to 5 mM in medium; for IC50: read-out: IC50 (concentration required for 50% proliferation inhibitory rate)
Method: as §1

[5] = tested on: HT-29; assay: antiproliferation assay, MTT method; assay type: cell-based, human; details: for dilution rate of the dilution added to the group whose absorbance at 590 nm was less than one-half of that of the control group: dilution rate 1 corresponds to 5 mM in medium; for IC50: read-out: IC50 (concentration required for 50% proliferation inhibitory rate)
Method: as §1

[6] = tested on: HeLa S3; assay: antiproliferation assay, MTT method; assay type: cell-based, human; details: for dilution rate of the dilution added to the group whose absorbance at 590 nm was less than one-half of that of the control group: dilution rate 1 corresponds to 5 mM in medium; for IC50: read-out: IC50 (concentration required for 50% proliferation inhibitory rate)
Method: as §1

[7] = tested on: HCT116; assay: antiproliferation assay, MTT method; assay type: cell-based, human; details: for dilution rate of the dilution added to the group whose absorbance at 590 nm was less than one-half of that of the control group: dilution rate 1 corresponds to 5 mM in medium; for IC50: read-out: IC50 (concentration required for 50% proliferation inhibitory rate)
Method: as §1

[8] = tested on: T-47D; assay: antiproliferation assay, MTT method; assay type: cell-based, human; details: for dilution rate of the dilution added to the group whose absorbance at 590 nm was less than one-half of that of the control group: dilution rate 1 corresponds to 5 mM in medium; for IC50: read-out: IC50 (concentration required for 50% proliferation inhibitory rate)
Method: as §1

[9] = tested on: HepG2; assay: antiproliferation assay, MTT method; assay type: cell-based, human; details: for dilution rate of the dilution added to the group whose absorbance at 590 nm was less than one-half of that of the control group: dilution rate 1 corresponds to 5 mM in medium; for IC50: read-out: IC50 (concentration required for 50% proliferation inhibitory rate)
Method: as §1

[10] = tested on: MKN45; assay: antiproliferation assay, MTT method; assay type: cell-based, human; details: for dilution rate of the dilution added to the group whose absorbance at 590 nm was less than one-half of that of the control group: dilution rate 1 corresponds to 5 mM in medium; for IC50: read-out: IC50 (concentration required for 50% proliferation inhibitory rate)
Method: as §1

[11] = tested on: T24; assay: antiproliferation assay, MTT method; assay type: cell-based, human; details: for dilution rate of the dilution added to the group whose absorbance at 590 nm was less than one-half of that of the control group: dilution rate 1 corresponds to 5 mM in medium; for IC50: read-out: IC50 (concentration required for 50% proliferation inhibitory rate)
Method: as §1

[12] = tested on: WiDr; assay: antiproliferation assay, MTT method; assay type: cell-based, human; details: for dilution rate of the dilution added to the group whose absorbance at 590 nm was less than one-half of that of the control group: dilution rate 1 corresponds to 5 mM in medium; for IC50: read-out: IC50 (concentration required for 50% proliferation inhibitory rate)
Method: as §1

[13] = tested on: MCF7; assay: antiproliferation assay, MTT method; assay type: cell-based, human; details: for dilution rate of the dilution added to the group whose absorbance at 590 nm was less than one-half of that of the control group: dilution rate 1 corresponds to 5 mM in medium; for IC50: read-out: IC50 (concentration required for 50% proliferation inhibitory rate)
Method: as §1

[14] = tested on: HL-60 cells; assay: antiproliferation assay, MTT method, absorbance at 590 nm; assay type: cell-based, human; details: for dilution rate of the dilution added to the group whose absorbance at 590 nm was less than one-half of that of the control group: 50 mM solution diluted 2- to 128-fold, dilution rate 1 corresponds to 5 mM in the cell culture medium; for IC50: read-out: IC50 (concentration required for 50% proliferation inhibitory rate); for antiproliferation activity against HL-60 cells (in words): preparations and fractions, compared with control to which water was added
[15] = tested on: A-172; assay: antiproliferation assay, MTT method; assay type: cell-based; details: for dilution rate of the dilution added to the group whose absorbance at 590 nm was less than one-half of that of the control group: dilution rate 1 corresponds to 5 mM in medium; for IC50: read-out: IC50 (concentration required for 50% proliferation inhibitory rate)
Method: as §1

[16] = tested on: HT-1080; assay: antiproliferation assay, MTT method; assay type: cell-based; details: for dilution rate of the dilution added to the group whose absorbance at 590 nm was less than one-half of that of the control group: dilution rate 1 corresponds to 5 mM in medium; for IC50: read-out: IC50 (concentration required for 50% proliferation inhibitory rate)
Method: as §1

[17] = HL-60, after reaction with L-cysteine at 37° C. for 1 hour
[18] = HL-60, after reaction with L-cysteine at 37° C. for 16 hours
[19] = HL-60, after reaction with L-lysine at 37° C. for 16 hours

Compound	dilution rate of the dilution added to the group whose absorbance at 590 nm was less than one-half of that of the control group [1]	IC50 [1]	apoptosis corpuscles [2]	number of viable cells as compared with the group to which water was added [2]	dilution rate of the dilution added to the group whose absorbance at 590 nm was less than one-half of that of the control group [3]	IC50 [3]	dilution rate of the dilution added to the group whose absorbance at 590 nm was less than one-half of that of the control group [4]	IC50 [4]	dilution rate of the dilution added to the group whose absorbance at 590 nm was less than one-half of that of the control group [5]	IC50 [5]	dilution rate of the dilution added to the group whose absorbance at 590 nm was less than one-half of that of the control group [6]	IC50 [6]	dilution rate of the dilution added to the group whose absorbance at 590 nm was less than one-half of that of the control group [7]	IC50 [7]	dilution rate of the dilution added to the group whose absorbance at 590 nm was less than one-half of that of the control group [8]	IC50 [8]	dilution rate of the dilution added to the group whose absorbance at 590 nm was less than one-half of that of the control group [9]	IC50 [9]	dilution rate of the dilution added to the group whose absorbance at 590 nm was less than one-half of that of the control group [10]	IC50 [10]	other results
OC[C@H]1O[C@@H](O[C@H]2[C@H]3OC[C@@H]2OC(O)[C@H]3O)[C@H](O)[C@@H](O)[C@H]1O (mixture of isomers) [Agarobiose, agarobiose]	16	179 µM	apoptosis corpuscles were observed	decreased	64	44 µM	8	570 µM	8	622 µM	8	353 µM	16	244 µM	16	210 µM	8	652 µM	8	344 µM	dilution rate of the dilution added to the group whose absorbance at 590 nm was less than one-half of that of the control group [11]: 8; IC50 [11]: 352 µM; dilution rate of the dilution added to the group whose absorbance at 590 nm was less than one-half of that of the control group [12]: 8; IC50 [12]: 405 µM; dilution rate of the dilution added to the group whose absorbance at 590 nm was less than one-half of that of the control group [13]: 16; IC50 [13]: 274 µM; dilution rate of the dilution added to the group whose absorbance at 590 nm was less than one-half of that of the control group ([14]; HL-60): 32; antiproliferation activity relative to the same concentration of the unreacted saccharide [14, 17]: 1/10; antiproliferation activity relative to the same concentration of the unreacted saccharide [14, 18]: 1/10; antiproliferation activity relative to the same concentration of the unreacted saccharide [14, 19]: 1/10; cell proliferation suppressed as compared with the control group ([14]; HL-60, agarobiose at 78 μg/ml, 48 hours): about 86%; IC50 ([14]; HL-60): 170 µM; antiproliferation activity against HL-60 cells (in words) ([14]; listed as group 4): an antiproliferation activity was observed; antiproliferation activity against HL-60 cells (in words) ([14]; listed as group 5): an antiproliferation activity was observed; antiproliferation activity against HL-60 cells (in words) ([14]; listed as peak at the elution time 8.87 min.): had both activities; antiproliferation activity against HL-60 cells (in words) ([14]; listed as peak at the elution time 9.40 min.): had both activities; dilution rate of the dilution added to the group whose absorbance at 590 nm was less than one-half of that of the control group [15]: 16; IC50 [15]: 289 µM; dilution rate of the dilution added to the group whose absorbance at 590 nm was less than one-half of that of the control group [16]: 8; IC50 [16]: 317 µM
OC[C@H]1O[C@@H](O[C@H]2[C@H]3OC[C@@H]2O[C@@H](O[C@H]2[C@@H](O)[C@@H](CO)O[C@@H](O[C@H]4[C@H]5OC[C@@H]4OC(O)[C@H]5O)[C@@H]2O)[C@H]3O)[C@H](O)[C@@H](O)[C@H]1O (stereo partly drawn) [Agarotetraose, agarotetraose]	32	133 µM	apoptosis corpuscles were observed	decreased	128	28 µM	8	494 µM	16	208 µM	8	400 µM	32	158 µM	16	183 µM	8	413 µM	16	196 µM	dilution rate of the dilution added to the group whose absorbance at 590 nm was less than one-half of that of the control group [11]: 8; IC50 [11]: 399 µM; dilution rate of the dilution added to the group whose absorbance at 590 nm was less than one-half of that of the control group [12]: 8; IC50 [12]: 399 µM; dilution rate of the dilution added to the group whose absorbance at 590 nm was less than one-half of that of the control group [13]: 16; IC50 [13]: 276 µM; dilution rate of the dilution added to the group whose absorbance at 590 nm was less than one-half of that of the control group ([14]; HL-60): 64; antiproliferation activity relative to the same concentration of the unreacted saccharide [14, 17]: 1/10; antiproliferation activity relative to the same concentration of the unreacted saccharide [14, 18]: 1/10; antiproliferation activity relative to the same concentration of the unreacted saccharide [14, 19]: 1/10; IC50 ([14]; HL-60): 97 µM; dilution rate of the dilution added to the group whose absorbance at 590 nm was less than one-half of that of the control group [15]: 16; IC50 [15]: 185 µM; dilution rate of the dilution added to the group whose absorbance at 590 nm was less than one-half of that of the control group [16]: 16; IC50 [16]: 216 µM
